Experimental data from ChEMBL document CHEMBL1201862, “PubChem BioAssay data set” (2004).
The source made the active and inactive calls.

Experiments:
[1] = Luminescence Cell-Based Dose Confirmation HTS to Identify Inhibitors of Platelet Dense Granule Release. [Related pubchem assays: 1663 (Primary HTS), 1678 (Summary of Project)]; format: functional
[2] = biological target: Luciferin 4-monooxygenase (Photinus pyralis, UniProt P08659); test: firefly luciferase enzyme inhibitors, dose response, biochemical, luminescence (AID 1891)
Sequence of Luciferin 4-monooxygenase (P08659 whole entry): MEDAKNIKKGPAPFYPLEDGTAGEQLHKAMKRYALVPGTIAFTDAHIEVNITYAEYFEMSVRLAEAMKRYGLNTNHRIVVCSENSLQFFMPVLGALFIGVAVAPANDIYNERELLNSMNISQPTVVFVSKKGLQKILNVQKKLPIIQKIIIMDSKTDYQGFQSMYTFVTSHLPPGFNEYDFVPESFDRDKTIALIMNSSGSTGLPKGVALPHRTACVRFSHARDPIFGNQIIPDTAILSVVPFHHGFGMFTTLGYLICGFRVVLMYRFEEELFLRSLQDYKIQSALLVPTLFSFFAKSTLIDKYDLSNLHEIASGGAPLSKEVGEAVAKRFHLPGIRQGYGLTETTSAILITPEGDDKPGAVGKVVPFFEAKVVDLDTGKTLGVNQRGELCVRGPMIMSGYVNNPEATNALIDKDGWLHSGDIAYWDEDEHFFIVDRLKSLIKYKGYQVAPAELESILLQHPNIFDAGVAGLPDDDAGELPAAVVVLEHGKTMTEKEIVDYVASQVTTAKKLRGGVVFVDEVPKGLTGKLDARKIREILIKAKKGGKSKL

Cytochrome P450 1A2 = biological target: T1, Cytochrome P450 1A2 (Homo sapiens, UniProt P05177);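 also: PubChem cytochrome P450 panel assay, CYP1A2 panel member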
T1 sequence (P05177 whole entry): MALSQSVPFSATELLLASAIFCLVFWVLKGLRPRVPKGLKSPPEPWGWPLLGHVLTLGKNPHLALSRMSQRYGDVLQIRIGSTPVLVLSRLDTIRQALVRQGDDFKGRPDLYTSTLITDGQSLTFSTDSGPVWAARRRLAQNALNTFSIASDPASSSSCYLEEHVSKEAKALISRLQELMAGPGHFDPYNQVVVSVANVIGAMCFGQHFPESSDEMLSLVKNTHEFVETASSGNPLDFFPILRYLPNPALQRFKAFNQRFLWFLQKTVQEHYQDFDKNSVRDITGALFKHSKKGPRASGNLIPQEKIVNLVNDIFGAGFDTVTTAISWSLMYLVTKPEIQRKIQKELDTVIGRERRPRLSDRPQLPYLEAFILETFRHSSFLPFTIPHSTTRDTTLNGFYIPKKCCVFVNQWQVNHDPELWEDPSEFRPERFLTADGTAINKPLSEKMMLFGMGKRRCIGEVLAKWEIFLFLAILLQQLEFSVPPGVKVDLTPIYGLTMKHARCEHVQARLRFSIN

cells = format: functional
Streptokinase A = biological target: T2, Streptokinase A (Streptococcus pyogenes serotype M1, UniProt P10520); test: S. pyogenes streptokinase expression inhibitors, potency, dose response, plasminogen activation absorbance, OD405 (AID 1914); format: functional, Streptococcus pyogenes M1 GAS;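 also: secreted streptokinase activity via plasminogen activation per viability signal from cell pellet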
T2 sequence (P10520 whole entry): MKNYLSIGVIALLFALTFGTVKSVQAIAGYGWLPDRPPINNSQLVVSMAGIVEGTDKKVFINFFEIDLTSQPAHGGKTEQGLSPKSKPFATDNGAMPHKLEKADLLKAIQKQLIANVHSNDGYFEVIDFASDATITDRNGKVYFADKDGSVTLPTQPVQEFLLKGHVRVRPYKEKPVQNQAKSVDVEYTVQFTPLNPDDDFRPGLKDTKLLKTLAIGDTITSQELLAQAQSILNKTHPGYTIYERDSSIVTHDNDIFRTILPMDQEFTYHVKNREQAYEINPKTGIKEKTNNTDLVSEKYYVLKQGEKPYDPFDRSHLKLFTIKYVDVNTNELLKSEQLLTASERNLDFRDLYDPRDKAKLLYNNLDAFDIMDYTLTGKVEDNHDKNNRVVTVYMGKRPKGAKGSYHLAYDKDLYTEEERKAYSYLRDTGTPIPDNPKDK

[3] = system: Streptococcus sp. 'group A'; test: growth inhibition of control SK(-) GAS strain, dose response, counter-screen for streptokinase expression inhibitor project, luminescence, kanamycin, BacTiterGlo, confirmation (AID 1900); format: functional, organism-based
Streptococcus = test: Group A Streptococcus viability loss, dose response, counter-screen for streptokinase expression inhibitor project, luminescence, BacTiterGlo (AID 1915); format: functional, organism-based;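 also: potency for reduction of bacterial viability or growth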
[4] = microbe, parasite or virus in culture; format: functional; settings: Mycobacterium tuberculosis
Cytochrome P450 3A4 = Cytochrome P450 3A4 (Homo sapiens, UniProt P08684);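 also: CYP3A4 tested as one member of a cytochrome P450 panel screen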
Sequence of Cytochrome P450 3A4 (P08684 whole entry): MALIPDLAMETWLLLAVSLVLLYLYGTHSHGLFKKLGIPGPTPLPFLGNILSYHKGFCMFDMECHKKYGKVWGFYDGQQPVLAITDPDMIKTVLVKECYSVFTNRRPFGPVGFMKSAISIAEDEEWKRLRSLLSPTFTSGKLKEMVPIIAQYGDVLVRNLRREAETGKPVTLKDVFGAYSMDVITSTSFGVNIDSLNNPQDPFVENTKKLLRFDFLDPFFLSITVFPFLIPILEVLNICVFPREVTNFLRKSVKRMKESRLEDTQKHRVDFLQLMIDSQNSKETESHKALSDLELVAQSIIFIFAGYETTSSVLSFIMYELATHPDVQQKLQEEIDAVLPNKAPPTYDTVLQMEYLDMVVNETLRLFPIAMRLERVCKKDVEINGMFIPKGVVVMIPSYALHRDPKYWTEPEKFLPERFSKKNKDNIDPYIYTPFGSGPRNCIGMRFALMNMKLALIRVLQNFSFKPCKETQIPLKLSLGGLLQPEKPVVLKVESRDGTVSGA

Cytochrome P450 2C9 = Cytochrome P450 2C9 (Homo sapiens, UniProt P11712)
Sequence of Cytochrome P450 2C9 (P11712 whole entry): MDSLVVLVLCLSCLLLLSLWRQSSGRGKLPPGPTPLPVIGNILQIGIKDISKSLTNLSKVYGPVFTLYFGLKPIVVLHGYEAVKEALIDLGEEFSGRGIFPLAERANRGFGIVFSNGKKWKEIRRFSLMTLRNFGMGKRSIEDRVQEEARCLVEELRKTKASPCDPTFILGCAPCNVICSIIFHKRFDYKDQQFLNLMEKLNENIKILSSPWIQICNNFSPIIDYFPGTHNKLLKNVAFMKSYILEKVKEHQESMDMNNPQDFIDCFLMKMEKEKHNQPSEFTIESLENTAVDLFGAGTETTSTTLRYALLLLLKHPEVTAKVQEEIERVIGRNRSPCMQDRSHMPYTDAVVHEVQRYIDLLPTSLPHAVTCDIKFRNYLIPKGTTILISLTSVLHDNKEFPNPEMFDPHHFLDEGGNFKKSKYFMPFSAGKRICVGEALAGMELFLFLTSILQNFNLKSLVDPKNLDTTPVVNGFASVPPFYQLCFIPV

Cytochrome P450 2D6 = Cytochrome P450 2D6 (Homo sapiens, UniProt P10635);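 also: CYP2D6 member of a cytochrome P450 panel assay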
Sequence of Cytochrome P450 2D6 (P10635 whole entry): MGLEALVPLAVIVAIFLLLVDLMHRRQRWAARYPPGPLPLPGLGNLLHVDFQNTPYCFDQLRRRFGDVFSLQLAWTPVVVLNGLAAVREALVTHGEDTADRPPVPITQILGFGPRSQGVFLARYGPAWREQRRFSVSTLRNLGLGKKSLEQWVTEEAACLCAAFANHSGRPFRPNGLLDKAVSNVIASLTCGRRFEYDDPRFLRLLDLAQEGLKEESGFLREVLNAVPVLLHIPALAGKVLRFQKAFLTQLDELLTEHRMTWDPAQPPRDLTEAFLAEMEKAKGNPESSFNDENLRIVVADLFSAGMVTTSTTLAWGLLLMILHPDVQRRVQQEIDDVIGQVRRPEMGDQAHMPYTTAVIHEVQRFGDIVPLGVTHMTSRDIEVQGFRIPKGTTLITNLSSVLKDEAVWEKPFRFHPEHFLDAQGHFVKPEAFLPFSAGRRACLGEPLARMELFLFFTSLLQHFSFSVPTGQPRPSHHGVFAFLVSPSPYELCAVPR

## NC(=O)C1(N2CCCCC2)CCN(C(=O)Nc2ccccc2C(F)(F)F)CC1
[1]
  EC50: > 112 µM (not active)
[2]
  EC50: > 112 µM (not active)

## COc1ccc(-c2cc(C(F)(F)F)nc(SCC(=O)NCCN3CCOCC3)n2)cc1OC
[1]
  EC50: 47.9 µM (active)
[2]
  EC50: > 112 µM (not active)

## CN1C[C@H](C(=O)N[C@@]2(C)O[C@@]3(O)[C@H]4CCCN4C(=O)[C@@H](Cc4ccccc4)N3C2=O)C=C2c3cccc4[nH]cc(c34)C[C@@H]21
Cytochrome P450 1A2
  AC50: 3.16 µM (inconclusive)

## CC(C)(C)c1ccc(OCCCC(=O)NC2=NCCS2)cc1
cells
  IC50: 20.1 µM (active)
Streptokinase A
  EC50: > 150 µM (not active)
[3]
  EC50: 19.8 µM (active)
Streptococcus
  EC50: > 150 µM (not active)

## CCN(C[C@H]1N[C@@](Cc2ccccc2)(C(=O)OC)[C@H]2C(=O)N(Cc3ccccc3)C(=O)[C@@H]12)C(=O)Nc1ccc(C(F)(F)F)cc1
[4]
  CC50: 39.5 µM (active)

## COc1ccc(C(=O)N2CC3(CC(c4cccc([N+](=O)[O-])c4)=NO3)C[C@H]2C(=O)NCC(N)=O)cc1 (stereo partly drawn)
Cytochrome P450 1A2
  AC50: 28.2 µM (inconclusive)

## CCc1cc(C(=O)N2CCCC(CCC(=O)NCc3cccc(OC)c3)C2)no1 (stereo not drawn)
Streptokinase A
  EC50: > 150 µM (not active)
[3]
  EC50: > 150 µM (not active)
Streptococcus
  EC50: > 150 µM (not active)

## CCCC(/C=C/c1ccc(OC(C)=O)cc1)=C1/c2ccccc2C(=O)N1c1ccccc1
[4]
  CC50: 12.8 µM (active)

## CCCCc1ccc(NC(S)=NCCc2ccc(F)cc2)cc1
Streptokinase A
  EC50: 45 µM (active)
Streptococcus
  EC50: > 150 µM (not active)

## COc1ccccc1/C=C/CN1CCCC(CO)(Cc2cccc(Cl)c2)C1 (stereo not drawn)
[1]
  EC50: > 112 µM (not active)
[2]
  EC50: > 112 µM (not active)

## Nc1ncnc2c1ncn2C1CCCC1
Cytochrome P450 1A2
  AC50: 20 µM (inconclusive)
Cytochrome P450 3A4
  AC50: 0.0398 µM (inconclusive)

## CCOCCN1CCN(c2c(CC)c(C)nc3cc(-c4cc(OC)cc(OC)c4)nn23)CC1
[4]
  CC50: > 40 µM (active)

## C=C(C)COc1ccc(-c2n[nH]c(C)c2-c2ccccc2)c(O)c1
Streptokinase A
  EC50: 7.78 µM (active)

## CCc1ccccc1NC(=O)C1C(c2ccccc2)C1(Cl)Cl (stereo not drawn)
Cytochrome P450 1A2
  AC50: 17.8 µM (inconclusive)
Cytochrome P450 2C9
  AC50: 20 µM (inconclusive)
Cytochrome P450 2D6
  AC50: 11.2 µM (inconclusive)

## CC1(C)CC(=O)C2=C(C1)N(c1ccccc1)C(=O)CC2c1ccsc1 (stereo not drawn)
[1]
  EC50: > 112 µM (not active)
[2]
  EC50: > 112 µM (not active)

## Cc1ccc(-c2csc3ncnc(Nc4ccc(N5CCOCC5)cc4)c23)cc1
[4]
  CC50: > 40 µM (active)

## COCCn1c(=O)c(-c2cn(C)c3ccccc23)nc2cnc(N3CCNCC3)nc21
Cytochrome P450 1A2
  AC50: 12.6 µM (inconclusive)

## Clc1cccc(-c2cc3nc4c(c(NCc5ccco5)n3n2)CCCC4)c1
[4]
  CC50: 23.7 µM (active)

## O=C(Nc1cccnc1)c1cc(-c2ccc(Cl)c(Cl)c2)on1
[1]
  EC50: > 112 µM (not active)
[2]
  EC50: > 112 µM (not active)

## CCn1cc([N+](=O)[O-])c(C(=O)N2N=C(c3ccc4ccccc4c3)CC2c2ccccc2O)n1 (stereo not drawn)
[4]
  CC50: 33.1 µM (active)

## COc1ccc(C(=O)Nc2ccc(Cl)cc2C(=O)NCCN2CCOCC2)cc1
Cytochrome P450 1A2
  AC50: 22.4 µM (inconclusive)

## CS(=O)(=O)N1CCC[C@@]2(CCN(c3ccccc3)C2)C1
Cytochrome P450 1A2
  AC50: 31.6 µM (inconclusive)
Cytochrome P450 2C9
  AC50: 25.1 µM (inconclusive)

## COc1cc2c(C(=O)N3CCN(c4cccc(Cl)c4)CC3)cn(CC(C)C)c(=O)c2cc1OC
[4]
  CC50: > 40 µM (active)

## C[N+](C)(CCCOc1ccccc1)c1ccccc1.O=C([O-])c1cc2ccccc2cc1O
Cytochrome P450 1A2
  AC50: 12.6 µM (inconclusive)

## C/C1=N/NC(=S)NCCCN2CCN(CCCNC(=S)N/N=C(/C)C=NNC(=S)NCCCN3CCN(CCCNC(=S)NN=C1)CC3)CC2
Cytochrome P450 1A2
  AC50: 3.16 µM (inconclusive)

## O=C(O)C=Cc1ccc(Cn2ccnc2)cc1
Cytochrome P450 1A2
  AC50: 31.6 µM (inconclusive)

## CC[N+](CC)(CCCNC1=CC(=O)C(NCCC[N+](CC)(CC)Cc2ccccc2)=CC1=O)Cc1ccccc1 [BENZOQUINONIUM]
Cytochrome P450 1A2
  AC50: 31.6 µM (inconclusive)

## Nc1ccn([C@@H]2O[C@H](CO)[C@@H](O)C2O)c(=O)n1 (stereo partly drawn) [CYTARABINE]
[4]
  CC50: 1.8 µM (active)
